These results are taken from patent publication US6930131B2, “Aryl substituted 3-ethoxy phenyl trifluoromethane sulfonamides for the treatment of non-insulin dependent diabetes mellitus (NIDDM)” (Wyeth, priority 2002, dated 2005).

For orientation: IC50 means the midpoint of a concentration-inhibition curve. Read a low IC50 as greater potency in that assay. As usually defined, the melting point is the temperature of the solid-liquid transition.

Data set [1] relates to Hepatocytes Isolated and Cultured from Obese Zucker (fa/fa) Rats. As to the kind of experiment: Inhibition of glucose output from hepatocytes isolated and cultured from obese Zucker (fa/fa) rats. The format is cell-based, rat. The settings on record: inhibition of glucose output vs glucagon stimulated cultured hepatocytes. The procedure:
Inhibition of Glucose Output from Hepatocytes Isolated and Cultured from Obese Zucker (fa/fa) Rats and their Lean Controls
Culturing of Hepatocytes: Isolated hepatocytes were plated on 12 well rat-tail collagen coated plates at a cell density of 5×10(5) cells/ml (approximately 1 ml of cell suspension per well). Following a one hour attachment period in which plates were incubated in a CO2 incubator at 37 deg C. (95% O2, 5% CO2), the supernatant containing unattached hepatocytes was removed and replaced with fresh media (1 ml/well) containing 1 μM dexamethasone and 100 pM insulin. Cells were maintained at 37 deg C. for 48 hours in a 95% O2, 5% CO2 environment. At the end of the first 24 hours, the media was aspirated off of the wells and replaced with fresh media containing the same concentrations of dexamethasone and insulin as described earlier. Treatment with Drugs and Assessment of Glucose Output: Drugs were routinely added with fresh media 24 hours after the initial attachment period. Eighteen hours later, media was aspirated and 500 μl of fresh Hank's buffer, Buffer D (glucose-free) supplemented with hormones, gluconeogenic substrates and drug(s) was added to each well and incubated for 4 hours. At the end of the 4 hour incubation, media from each well was removed and assayed for glucose content using the hexokinase/glucose-6-phosphate dehydrogenase coupled assay on the Boehringer Mannheim model 911 auto analyzer. Glucose concentration was expressed as μg/ml. Three of the plates from each treated group were frozen for subsequent determination of protein content. Two plates from each treatment group were used to assess the cytotoxicity of drug(s) and other agents as determined by the MTT (tetrazolium) dye reduction method (see below).
Assessment of Cytotoxicity using MTT Dye Reduction Assay: Two plates with no insulin treatment and two plates with 10^−8 M insulin treatment were used for the MTT dye reduction assay. Following removal of media from the plates for measurement of glucose output, wells were washed once with 1 ml of Hank's buffer (0.5% BSA). Aliquots of […] of Hank's buffer (1.1% BSA) and […] MTT solution (5 mg MTT/ml in phosphate buffered saline (PBS) filtered through 0.45 micron syringe filter) were added to each well. Plates were incubated for one hour at 37 deg C. After one hour incubation, the MTT dye solution was aspirated off and […] of HCL/isopropanol solution (8 ml of 1 N HCL and 192 ml of isopropanol) was added to each well. HCL/isopropanol solution was mixed by drawing liquid into a pipetman 2 to 3 times and then carefully transferred into a 96 well flat bottom plate. The 96 well plate was read on a plate reader (UV max kinetic microplate reader, Molecular Devices) at 570 nm test wavelength and 650 nm reference wavelength. The results were expressed as % inhibition from the control (lactate and glucagon treated) well.
Protein test procedure: Three plates with no insulin treatment and three plates with 10^−8 M insulin treatment were used for protein determination. After supernatant has been removed for determination of glucose output the plates were frozen and stored at −20 deg C. until ready to assay for protein content. Prior to determination of protein the plates were defrosted at room temperature for 15 minutes. An aliquot of 1 ml 0.1 N NaOH was added to each well. Plates were incubated at 4 deg C. overnight. Solutions for measurement of protein content were mixed by pipetting the NaOH solution up and down several time with a 1 ml pipette and then transferring to a small polyethylene tube. Protein determination was based on that of the Pierce BCA protein assay protocol (Pierce cat. no. 23223). A set of protein standards (0.2, 0.4, 0.6, 0.8, and 1 mg/ml BSA) was prepared by serial dilution of 1 mg/ml bovine serum albumin with 0.1 N NaOH, and 40 μl of each standard, or control blank was pipetted into a 96-well plate in duplicate. Each unknown protein sample (40 μl) was tested in triplicate. […]

The test system of data set [2] is ob/ob (C57 B1/6J) mice. Put plainly: Hypoglycemic effect in diabetic ob/ob mice. The format is in vivo, mouse. The procedure:
Hypoglycemic Effect in Diabetic OB/OB Mice
Procedure: In each study, male or female ob/ob (C57 B1/6J) mice and their mean litermates (ob/+ or +/+, Jackson Laboratories) ages 2 to 5 months (10 to 65 g) were randomized according to plasma glucose into 4 groups of 10 mice. The mice were housed 5 per cage and were maintained on normal rodent chow with water ad libitum. Mice receive compound daily by gavage (suspended in 0.5 ml of 0.5% methyl cellulose); dissolved in the drinking water; or admixed in the diet. The dose of compounds given ranges from 2.5 to 200 mg/kg body weight/day. Body weight of fed animals was measured at the beginning of each week and doses for the entire week were calculated using this weight and were expressed in terms of the active moiety of the compound. Control mice receive vehicle only. […]
Measurements: The plasma was isolated by centrifugation and the concentration of glucose was measured enzymatically on an Abbott V. P. Analyzer and the plasma concentration of insulin was determined by radioimmunoassay (Heding, 1972)
Analysis of variance followed by Dunnett's Comparison Test (one-tailed) was used to estimate the significant difference between the plasma glucose values from the control group and the individual compound treated groups (CMS SAS Release 5.18). A compound will be considered active if the difference has a p<0.05.

Data set [3] relates to ob/ob (C57 B1/6J) mice. The settings on record: reference compound, 20 mg/kg/day; cited from earlier work.

The compound `O=S(=O)(Nc1cccc(CCOCc2ccc(-c3ccc(Cl)cc3)cc2F)c1)C(F)(F)F` [Example 11, N-{3-[2-(4′-Chloro-3-fluoro-biphenyl-4-ylmethoxy)-ethyl]-phenyl}-C,C,C-trifluoro methane sulfonamide] registered an IC50 in data set [1] of 10 µM.

For `O=S(=O)(Nc1cccc(CCOCc2csc(-c3ccc(Cl)cc3)n2)c1)C(F)(F)F` [Example 53, N-(3-{2-[2-(4-Chloro-phenyl)-thiazol-4-ylmethoxy]-ethyl}-phenyl)-C,C,C-trifluoro-methanesulfonamide], the melting point lay in the range of 114 to 116 °C. The IC50 in data set [1] (Rattus norvegicus, Hepatocyte) came to 10 µM. In data set [2] (10 mg/kg p.o.), the “Reduction in Plasma Glucose Day 1 (6 hr) p.o.” value is on record as −36% and the “Reduction in Plasma Glucose Day 3 (6 hr) p.o.” value is recorded as −26%.

In data set [1], `O=S(=O)(Nc1cccc(CCOCc2ccc(-c3ccc(Cl)cc3)cc2Cl)c1)C(F)(F)F` [Example 23, N-{3-[2-(3-Chloro-4′-chloro-biphenyl-4-ylmethoxy)-ethyl]-phenyl}-C,C,C-trifluoro methane sulfonamide] gave an IC50 of 1.7 µM. In addition, in data set [2] (5 mg/kg p.o.), the “Reduction in Plasma Glucose Day 1 (6 hr) p.o.” value is reported as −37% and the “Reduction in Plasma Glucose Day 3 (6 hr) p.o.” value is reported as −37%.

Regarding sodium metavanadate, the “lowering in plasma glucose” value in data set [3] is reported as “significant lowering in plasma glucose”.

`CC(C)(C)c1ccc(-c2nc(COCCc3cccc(NS(=O)(=O)C(F)(F)F)c3)cs2)cc1` [Example 43, N-(3-{2-[2-(4-tert-Butyl-phenyl)-thiazol-4-ylmethoxy]-ethyl}-phenyl)-C,C,C-trifluoro-methanesulfonamide] had a melting point of 110 to 112 °C. Also, half-maximal inhibition in data set [1] (Rattus norvegicus, Hepatocyte) (IC50) was put at 6.9 µM.

Take `O=S(=O)(Nc1cccc(CCOCc2ccc(-c3ccc(Cl)cc3)cc2)c1)C(F)(F)F` [Example 7, N-{3-[2-(4′-Chloro-biphenyl-4-ylmethoxy)-ethyl]-phenyl}-C,C,C-trifluoromethane sulfonamide]: the melting point was in the range of 69 to 70 °C. In addition, it took 2.5 µM to reach half-maximal inhibition in data set [1] (Rattus norvegicus, Hepatocyte) (IC50). Besides, in data set [2] (5 mg/kg p.o.), the “Reduction in Plasma Glucose Day 1 (6 hr) p.o.” value was −8% and the “Reduction in Plasma Glucose Day 3 (6 hr) p.o.” value is on record as −22%.

In turn, `O=S(=O)(Nc1cccc(CCOCc2ccc(-c3ccc(Cl)c(Cl)c3)cc2)c1)C(F)(F)F` [Example 6, N-{3-[2-(3′,4′-Dichloro-biphenyl-4-ylmethoxy)-ethyl]-phenyl}-C,C,C-trifluoro-methanesulfonamide] yielded a melting point of 74 to 75 °C. Also, in data set [1] (Rattus norvegicus, Hepatocyte), the IC50 is 2.3 µM. In data set [2] (5 mg/kg p.o.), the “Reduction in Plasma Glucose Day 1 (6 hr) p.o.” value is listed as −16% and the “Reduction in Plasma Glucose Day 3 (6 hr) p.o.” value was −24%.

`COc1cc(COCCc2cccc(NS(=O)(=O)C(F)(F)F)c2)ccc1-c1ccc(Cl)cc1` [Example 88, N-{3-[2-(4′-Chloro-2-methoxy-biphenyl-4-ylmethoxy)-ethyl]-phenyl}-C,C,C-trifluoromethane sulfonamide] displayed a melting point of 88 to 90 °C. This compound also showed an IC50 in data set [1] (Rattus norvegicus, Hepatocyte) of 4 µM. In data set [2] (25 mg/kg p.o.), the “Reduction in Plasma Glucose Day 1 (6 hr) p.o.” value is listed as −71 and the “Reduction in Plasma Glucose Day 3 (6 hr) p.o.” value is recorded as −29.

`COc1cc(-c2ccc(Cl)cc2)ccc1COCCc1cccc(NS(=O)(=O)C(F)(F)F)c1` [Example 26, N-{3-[2-(4′-Chloro-3-methoxy-biphenyl-4-ylmethoxy)-ethyl]-phenyl}-C,C,C-trifluoro methane sulfonamide]: 2.3 µM corresponded to half-maximal inhibition in data set [1] (IC50). Moreover, in data set [2] (20 mg/kg p.o.), the “Reduction in Plasma Glucose Day 1 (6 hr) p.o.” value is listed as −20% and the “Reduction in Plasma Glucose Day 3 (6 hr) p.o.” value was “+1”.

As for `CC(C)(C)c1ccc(-c2ccc(COCCc3cccc(NS(=O)(=O)C(F)(F)F)c3)c(F)c2)cc1` [Example 19, N-{3-[2-(4′-tert-Butyl-3-fluoro-biphenyl-4-ylmethoxy)-ethyl]-phenyl}-C,C,C-trifluoro-methanesulfonamide], the melting point is 89 to 90 °C. The IC50 in data set [1] (Rattus norvegicus, Hepatocyte) came out at 8 µM.

`O=S(=O)(Nc1cccc(CCOCc2csc(-c3ccc(F)c(Cl)c3)n2)c1)C(F)(F)F` [Example 56, N-(3-{2-[2-(3-Chloro-4-fluoro-phenyl)-thiazol-4-ylmethoxy]-ethyl}-phenyl)-C,C,C-trifluoro-methanesulfonamide] displayed a half-maximal inhibitory concentration (IC50) in data set [1] (Rattus norvegicus, Hepatocyte) of 15 µM. In data set [2] (5 mg/kg p.o.), the “Reduction in Plasma Glucose Day 1 (6 hr) p.o.” value was −16% and the “Reduction in Plasma Glucose Day 3 (6 hr) p.o.” value was −26%.

`O=S(=O)(Nc1cccc(CCOCc2ccc(-c3ccc(F)cc3)cc2Cl)c1)C(F)(F)F` [Example 22] registered an IC50 in data set [1] of 2.2 µM.

As to `O=C(O)c1ncccc1S` [Na-Mercaptopicolinic acid, reference compound], in data set [1], the IC50 was 45 µM.
